Test results as given in ChEMBL document CHEMBL1145478, “Neisseria gonorrhoeae isolates with reduced susceptibility to cefixime and ceftriaxone: association with genetic polymorphisms in penA, mtrR, porB1b, and ponA” (2007).
Values after ≈ are worked out from the molar mass of the structure shown.

What was measured:
Type in all cases: functional
Neisseria gonorrhoeae [1] = test: Antimicrobial activity against Neisseria gonorrhoeae 67 isolate
Neisseria gonorrhoeae [2] = test: Antimicrobial activity against Neisseria gonorrhoeae 65 isolate
Neisseria gonorrhoeae [3] = test: Antimicrobial activity against Neisseria gonorrhoeae 64 isolate
Neisseria gonorrhoeae [4] = test: Antimicrobial activity against Neisseria gonorrhoeae 30 isolate
Neisseria gonorrhoeae [5] = test: Antimicrobial activity against Neisseria gonorrhoeae 196 isolate
Neisseria gonorrhoeae [6] = test: Antimicrobial activity against Neisseria gonorrhoeae 273 isolate
Neisseria gonorrhoeae [7] = test: Antimicrobial activity against Neisseria gonorrhoeae 253 isolate
Neisseria gonorrhoeae [8] = test: Antimicrobial activity against Neisseria gonorrhoeae 201 isolate
Neisseria gonorrhoeae [9] = test: Antimicrobial activity against Neisseria gonorrhoeae 188 isolate
Neisseria gonorrhoeae [10] = test: Antimicrobial activity against Neisseria gonorrhoeae 158 isolate
Neisseria gonorrhoeae [11] = test: Antimicrobial activity against Neisseria gonorrhoeae 119 isolate
Neisseria gonorrhoeae [12] = test: Antimicrobial activity against Neisseria gonorrhoeae 59 isolate
Neisseria gonorrhoeae [13] = test: Antimicrobial activity against Neisseria gonorrhoeae 35 isolate
Neisseria gonorrhoeae [14] = test: Antimicrobial activity against Neisseria gonorrhoeae 82 isolate
Neisseria gonorrhoeae [15] = test: Antimicrobial activity against Neisseria gonorrhoeae 90 isolate
Neisseria gonorrhoeae [16] = test: Antimicrobial activity against Neisseria gonorrhoeae 91 isolate
Neisseria gonorrhoeae [17] = test: Antimicrobial activity against Neisseria gonorrhoeae 128 isolate

Row | SMILES | MIC (Neisseria gonorrhoeae [1]) [µg/mL] | MIC (Neisseria gonorrhoeae [2]) [µg/mL] | MIC (Neisseria gonorrhoeae [3]) [µg/mL] | MIC (Neisseria gonorrhoeae [4]) [µg/mL] | MIC (Neisseria gonorrhoeae [5]) [µg/mL] | MIC (Neisseria gonorrhoeae [6]) [µg/mL] | MIC (Neisseria gonorrhoeae [7]) [µg/mL] | MIC (Neisseria gonorrhoeae [8]) [µg/mL] | MIC (Neisseria gonorrhoeae [9]) [µg/mL] | MIC (Neisseria gonorrhoeae [10]) [µg/mL] | MIC (Neisseria gonorrhoeae [11]) [µg/mL] | MIC (Neisseria gonorrhoeae [12]) [µg/mL] | MIC (Neisseria gonorrhoeae [13]) [µg/mL] | MIC (Neisseria gonorrhoeae [14]) [µg/mL] | MIC (Neisseria gonorrhoeae [15]) [µg/mL] | MIC (Neisseria gonorrhoeae [16]) [µg/mL] | MIC (Neisseria gonorrhoeae [17]) [µg/mL]
1 | C=CC1=C(C(=O)O)N2C(=O)[C@@H](NC(=O)/C(=N\OCC(=O)O)c3csc(N)n3)[C@H]2SC1 [CEFIXIME] | 0.25 (≈ 0.551 µM) | 0.25 (≈ 0.551 µM) | 0.25 (≈ 0.551 µM) | 0.25 (≈ 0.551 µM) | 0.094 (≈ 0.207 µM) | 0.064 (≈ 0.141 µM) | 0.064 (≈ 0.141 µM) | 0.064 (≈ 0.141 µM) | 0.064 (≈ 0.141 µM) | 0.047 (≈ 0.104 µM) | < 0.016 | 0.25 (≈ 0.551 µM) | 0.38 (≈ 0.838 µM) | 0.38 (≈ 0.838 µM) | 0.38 (≈ 0.838 µM) | 0.38 (≈ 0.838 µM) | < 0.016
2 | CO/N=C(\C(=O)N[C@@H]1C(=O)N2C(C(=O)O)=C(CSc3nc(=O)c(O)nn3C)CS[C@H]12)c1csc(N)n1 [CEFTRIAXONE] | 0.094 (≈ 0.169 µM) | 0.094 (≈ 0.169 µM) | 0.094 (≈ 0.169 µM) | 0.094 (≈ 0.169 µM) | 0.094 (≈ 0.169 µM) | 0.094 (≈ 0.169 µM) | 0.064 (≈ 0.115 µM) | 0.064 (≈ 0.115 µM) | 0.064 (≈ 0.115 µM) | 0.094 (≈ 0.169 µM) | < 0.002 | 0.094 (≈ 0.169 µM) | 0.094 (≈ 0.169 µM) | 0.125 (≈ 0.225 µM) | 0.125 (≈ 0.225 µM) | 0.125 (≈ 0.225 µM) | < 0.002
3 | CC1(C)S[C@@H]2[C@H](NC(=O)Cc3ccccc3)C(=O)N2[C@H]1C(=O)O [PENICILLIN G] | 2 (≈ 5.98 µM) | 1.5 (≈ 4.49 µM) | 2 (≈ 5.98 µM) | 3 (≈ 8.97 µM) | 1 (≈ 2.99 µM) | 1.5 (≈ 4.49 µM) | 1.5 (≈ 4.49 µM) | 1 (≈ 2.99 µM) | 1 (≈ 2.99 µM) | 1.5 (≈ 4.49 µM) | 0.012 (≈ 0.0359 µM) | 6 (≈ 17.9 µM) | 2 (≈ 5.98 µM) | 6 (≈ 17.9 µM) | 6 (≈ 17.9 µM) | 6 (≈ 17.9 µM) | 0.008 (≈ 0.0239 µM)
